Experimental data: patent publication US8211877B2, “Compounds, compositions and methods for preventing neurodegeneration in acute and chronic injuries in the central nervous system” (Neurotech Pharmaceuticals Co., Ltd., priority 2000, dated 2012)

Assays:
[1] = Anti-oxidant effect: decrease in DPPH absorption at 517 nm; type: biochemical; conditions: for A517 nm (DPPH): 100 uM DPPH in ethanol, 30 min, mean±SEM
Procedure: To examine anti-oxidant effect, DPPH (2,2-diphenyl-1-picryl-hydrazyl radical), a stable free radical, was dissolved in ethanol to make a 100μ M solution. A compound was reacted with DPPH or ethanol. After incubation for 30 min, relative decrease in DPPH absorption at 517 nm was measured by a spectrophotometer.
AS or trolox was reacted with 100 uM DPPH dissolved in ethanol for 30 min. Anti-oxidant property was analyzed by measuring changes in the level of DPPH at 517 nm, mean±SEM (n=3 test tubes per condition), after subtracting background value resulting from ethanol alone.
Anti-oxidant property was analyzed by measuring changes in DPPH at 517 nm, mean±SEM (n=3 test tubes per condition), after subtracting background value resulting from ethanol alone.
NBAS was reacted with 100 uM DPPH dissolved in ethanol for 30 min. Anti-oxidant property was analyzed by measuring changes in DPPH at 517 nm, mean±SEM (n=3 test tubes per condition), after subtracting background value resulting from ethanol alone.
PBAS was reacted with 100 uM DPPH dissolved in ethanol for 30 min. Anti-oxidant property was analyzed by measuring changes in DPPH at 517 nm, mean±SEM (n=3 test tubes per condition), after subtracting background value resulting from ethanol alone.
NBAS derivatives (100μ M for each) were reacted with 100 μM DPPH dissolved in ethanol for 30 min. Anti-oxidant property was analyzed by measuring changes in DPPH at 517 nm, meant SEM (n=3 test tubes per condition), after subtracting background value resulting from ethanol alone.

[2] = test system: Mouse cortical cell cultures; assay: NMDA-induced neuronal death in cortical cell cultures (LDH release); type: cell-based; conditions: 300 μM NMDA 10 min
Procedure: (§1) Primary cortical cell cultures from embryonic mice were prepared and used to examine neuroprotective action of compounds. Mouse cortical cell culture system has been extensively used to study mechanisms and pharmacological intervention of neuronal death in neurological diseases. In brief, mouse cerebral cortices were removed from brains of the 15 day-old-fetal mice, in accordance with a protocol approved by our institutional animal care committee. The neocortices were gently triturated and plated on 24 well plates (5 hemispheres/plate) precoated with 100 μg/ml poly-D-lysine and 4 μg/ml laminin. Plating media consist of Eagles minimal essential media (MEM, Earles salts, supplied glutamine-free) supplemented with 5% horse serum, 5% fetal bovine serum, 2 mM glutamine, and 21 mM glucose. Cultures were maintained at 37° C. in a humidified 5% CO2 atmosphere. After 7 days in vitro (DIV 7), cultures were shifted into a growth medium identical to the plating medium but lacking fetal serum. At DIV 7-9, 10 mM cytosine arabinofuranoside was included to halt overgrowth of glia. Mixed cultures of neurons and glia were then fed twice a week.
(§2) The percent neuronal death was normalized to the mean LDH value released 24 hr after continuous exposure 500 μM NMDA (=100) or a sham control (=0).
(§3) The neuroprotective action of 5-amino salicylic acid (AS) was examined in primary cortical cell cultures. Mouse cortical cell cultures (DIV 12-14) were exposed to 300μ M NMDA for 10 min (1a), continuously to 50μ M Fe^2+ (1b), or 300μ M Zn^2+ for 30 min (1c), alone or with inclusion of 10-300μ M 5-amino salicylic acid (AS). Neuronal death was analyzed 24 hr later by measuring levels of LDH released into the bathing medium, mean±SEM (n=9-12 (1a), n=4-8 (1b) or n=4 (1c) culture wells per condition), scaled to mean LDH efflux value 24 hr after sham wash (=0) and continuous exposure to 500μ M NMDA (=100).
(§4) Neuronal death was analyzed 24 hr later by measuring levels of LDH released into the medium, meant SEM (n=7-8 (2a), n=3-6 (2b), n=4 (2c), or n=4 (2d) culture wells per condition). FIG. 2. indicates significant difference from relevant control, at p<0.05 using ANOVA and Student-Neuman-Keuls test.
(§5) 5-(pentafluorobenzyl)amino salicylic acid (PBAS) was synthesized and tested against neuronal injuries. Mouse cortical cell cultures (DIV 12-14) were exposed to 300μ M NMDA for 10 min (8a), continuously to 50μ M Fe^2+ (8b) or 10 mM BSO (8c), or 300μ M Zn^2+ for 30 min (8d), alone or with inclusion of indicated doses of 5-(pentafluorobenzyl)amino salicylic acid (PBAS). Neuronal death was analyzed 24 hr later by measuring levels of LDH released into the medium, mean t SEM (n=11-16 (8a), n=3-6 (8b), n=4-11 (8c), or n=12 (8d) culture wells per condition).
(§6) Mouse cortical cell cultures (DIV 12-14) were exposed to 300μ M NMDA for 10 min (11a) or continuously to 50μ M Fe^2− (11b), alone or with inclusion of indicated doses of 5-(4-nitrobenzyl)-N-acetylamino-2-acetoxy ethylbenzoate (NNAAE). Neuronal death was analyzed 24 hr later by measuring levels of LDH released into the medium, mean±SEM (n=10-12 (11a), n=7-8 (11b), or n=4 (11c) culture wells per condition).
(§7) Mouse cortical cell cultures (DIV 12-14) were exposed to 300μ M NMDA for 10 min (15a) or continuously to 50μ M Fe^2− (15b), alone or with inclusion of indicated doses of 5-[3-(4-nitrophenyl)-n-propyl]aminosalicylic acid (NPPAA). Neuronal death was analyzed 24 hr later by measuring levels of LDH released into the medium, mean±SEM (n=4 (15a) or n=3-8 (15b) culture wells per condition).

[3] = test system: Mouse cortical cell cultures; assay: Fe2+-induced free radical neurotoxicity in cortical cell cultures (LDH release); type: cell-based; conditions: for Protection against free radical neurotoxicity compared with parent compound: comparison with BAS or NBAS
Procedure: as §1, §2, §3, §4, §5, §6, §7

[4] = test system: Mouse cortical cell cultures; assay: Zn2+ neurotoxicity in cortical cell cultures (LDH release); type: cell-based; conditions: 300 μM Zn2+ 30 min
Procedure: as §1, with “Cultures were maintained at 37° C. in a humidified 5% CO2 atmosphere. After 7 days in vitro (DIV 7), cultures were shifted into a growth medium identical to the plating medium but lacking fetal serum. At DIV 7-9, 10 mM cytosine arabinofuranoside was included to halt overgrowth of glia. Mixed cultures of neurons and glia were then fed twice a week.” left out
The neuroprotective action of 5-amino salicylic acid (AS) was examined in primary cortical cell cultures. […] Neuronal death was analyzed 24 hr later by measuring levels of LDH released into the bathing medium, mean±SEM (n=9-12 (1a), n=4-8 (1b) or n=4 (1c) culture wells per condition), scaled to mean LDH efflux value 24 hr after sham wash (=0) and continuous exposure to 500μ M NMDA (=100).
(§8) Neuronal death was analyzed 24 hr later by measuring levels of LDH released into the medium, meant SEM (n=7-8 (2a), n=3-6 (2b), n=4 (2c), or n=4 (2d) culture wells per condition). […]

[5] = test system: Mouse cortical cell cultures; assay: BSO-induced free radical neurotoxicity in cortical cell cultures (LDH release); type: cell-based; conditions: 10 mM BSO continuously; compound 1 μM
Procedure: as §1, with “After 7 days in vitro (DIV 7), cultures were shifted into a growth medium identical to the plating medium but lacking fetal serum. At DIV 7-9, 10 mM cytosine arabinofuranoside was included to halt overgrowth of glia. Mixed cultures of neurons and glia were then fed twice a week.” left out
as §8
5-(pentafluorobenzyl)amino salicylic acid (PBAS) was synthesized and tested against neuronal injuries. […] Neuronal death was analyzed 24 hr later by measuring levels of LDH released into the medium, mean t SEM (n=11-16 (8a), n=3-6 (8b), n=4-11 (8c), or n=12 (8d) culture wells per condition).

[6] = 50 μM Fe2+ continuously, compound 1 μM
[7] = 50 μM Fe2+ continuously, compound 10 μM

## O=C(O)c1cc(NCc2ccc([N+](=O)[O-])cc2)ccc1O [NBAS, 5-(4-nitrobenzyl)aminosalicylic acid]
[1]; compound 10 μM
  A517 nm (DPPH): 0.37 ± 0.1
[1]; compound 30 μM
  A517 nm (DPPH): 0.04 ± 0.01
[1]; compound 100 μM
  A517 nm (DPPH): 0.04 ± 0.00
[1]; compound 300 μM
  A517 nm (DPPH): 0.04 ± 0.00

## O=C(O)c1cc(NS(=O)(=O)c2ccc([N+](=O)[O-])cc2)ccc1O [NBSAA, 5-(4-nitrobenzenesulfonyl)aminosalicylic acid]
[2]; compound 300 μM
  Effect on NMDA-induced neuronal death, in words: markedly reduced
[2]; compound 30-300 μM
  Effect on NMDA-induced neuronal death, in words: attenuated NMDA neurotoxicity in a dose-dependent manner
[3]
  Protection against free radical neurotoxicity compared with parent compound: weaker than NBAS
[1]; compound 100 μM
  A517 nm (DPPH): 0.15 ± 0.05

## Cc1c(C)c2c(c(C)c1O)CCC(C)(C(=O)O)O2 (stereo not drawn) [Trolox, reference compound]
[1]; compound 3 μM
  A517 nm (DPPH): 1.08 ± 0.1
[1]; compound 10 μM
  A517 nm (DPPH): 0.89 ± 0.08
[1]; compound 30 μM
  A517 nm (DPPH): 0.39 ± 0.06
[1]; compound 100 μM
  A517 nm (DPPH): 0.05 ± 0.01
[1]; compound 300 μM
  A517 nm (DPPH): 0.03 ± 0.01

## Nc1ccc(O)c(C(=O)O)c1 [AS, 5-amino salicylic acid, reference compound]
[2]; compound 10-300 μM, LDH 24 hr later
  Effect on NMDA-induced neuronal death, in words: did not attenuate
[4]; compound 10-300 μM during and post Zn2+ treatment
  Effect on Zn2+-induced neuronal death, in words: not reduced
[3]; 50 μM Fe2+ continuously 24 hr, compound 10-100 μM
  Effect on Fe2+-induced neuronal death, in words: dose-dependently prevented

## O=C(O)c1cc(NCCc2ccc([N+](=O)[O-])cc2)ccc1O [NPAA, 5-[2-(4-nitrophenyl)-ethyl]aminosalicylic acid]
[2]; compound 300 μM
  Effect on NMDA-induced neuronal death, in words: slightly reduced
[3]; [6]
  Effect on Fe2+-induced neuronal death, in words: complete blockade
[3]
  Protection against free radical neurotoxicity compared with parent compound: more effective than NBAS
[1]; compound 100 μM
  A517 nm (DPPH): 0.09 ± 0.01

## CCOC(=O)c1cc(N(Cc2ccc([N+](=O)[O-])cc2)C(C)=O)ccc1O [NNAHE, 5-(4-nitrobenzyl)-N-acetylamino-2-hydroxy ethylbenzoate]
[3]; [7]
  Effect on Fe2+-induced neuronal death, in words: blocked

## O=C(Nc1ccc(O)c(C(=O)O)c1)c1ccc([N+](=O)[O-])cc1 [NBAA, 5-(4-nitrobenzoyl)aminosalicylic acid]
[2]; compound 30 μM
  Effect on NMDA-induced neuronal death, in words: significantly attenuated
[2]; compound 30-300 μM
  Effect on NMDA-induced neuronal death, in words: not further increased
[3]
  Protection against free radical neurotoxicity compared with parent compound: weaker than NBAS
[1]; compound 100 μM
  A517 nm (DPPH): 0.42 ± 0.22

## CCOC(=O)c1cc(NCc2ccc([N+](=O)[O-])cc2)ccc1O [NAHE, 5-(4-nitrobenzyl)amino-2-hydroxy ethylbenzoate]
[3]; [7]
  Effect on Fe2+-induced neuronal death, in words: blocked

## O=C(O)c1cc(NCc2c(F)c(F)c(F)c(F)c2F)ccc1O [PBAS, 5-(pentafluorobenzyl)aminosalicylic acid]
[2]; compound 300 μM, LDH 24 hr later
  Reduction of NMDA-induced neuronal death: ~65%
[2]; compound 100-1000 μM
  Effect on NMDA-induced neuronal death, in words: reduced NMDA-induced neuronal death in a dose-dependent manner
[2]; compound up to 1 mM
  Effect on NMDA-induced neuronal death, in words: completely blocked
[4]; compound 100-300 μM
  Effect on Zn2+-induced neuronal death, in words: attenuated
[5]
  Effect on BSO-induced neuronal death, in words: blocked
[3]; [6]
  Effect on Fe2+-induced neuronal death, in words: significantly reduced
[3]; 50 μM Fe2+ continuously, compound 3 μM
  Effect on Fe2+-induced neuronal death, in words: near completely blocked
[1]; DPPH, a stable free radical
  Anti-oxidant property against DPPH, in words: reduced levels of DPPH
[1]; compound 1 μM
  A517 nm (DPPH): 1.07 ± 0.07
[1]; compound 3 μM
  A517 nm (DPPH): 1.01 ± 0.07
[1]; compound 10 μM
  A517 nm (DPPH): 0.71 ± 0.09
[1]; compound 30 μM
  A517 nm (DPPH): 0.21 ± 0.04
[1]; compound 100 μM
  A517 nm (DPPH): 0.15 ± 0.02
[1]; compound 300 μM
  A517 nm (DPPH): 0.16 ± 0.01

## CCOC(=O)c1cc(N(Cc2ccc([N+](=O)[O-])cc2)C(C)=O)ccc1OC(C)=O [NNAAE, 5-(4-nitrobenzyl)-N-acetylamino-2-acetoxy ethylbenzoate]
[3]; [7]
  Effect on Fe2+-induced neuronal death, in words: blocked

## O=C(O)c1cc(NCCCc2ccc([N+](=O)[O-])cc2)ccc1O [NPPAA, 5-[3-(4-nitrophenyl)-n-propyl]aminosalicylic acid]
[2]; compound 300 μM
  Effect on NMDA-induced neuronal death, in words: slightly reduced
[3]; [6]
  Effect on Fe2+-induced neuronal death, in words: complete blockade
[3]
  Protection against free radical neurotoxicity compared with parent compound: more effective than NBAS
[1]; compound 100 μM
  A517 nm (DPPH): 0.09 ± 0.02
